According to US20240116951A1, “HETEROCYCLIC COMPOUNDS AND USES THEREOF” (Kumquat Biosciences Inc., priority 2022, published 2024):

Columns and labels:
Type in all cases: binding
[1] = molecular target: T1, KRAS G12S (Homo sapiens, UniProt P01116, G12S); experiment: HTRF assay of K-Ras G12S interaction with SOS1 (PPI-HTRF); conditions: 5 nM KRAS G12S, read-out: PPI-HTRF-5 nM KRAS G12S
T1 construct: made in house; host or cells: E. coli, e.g. BL21 (DE3)
How it was run: (§1)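 Compounds tested in duplicate from 10 μM to 0.01 μM; 665/620 nm emission ratio used to derive IC50. Proximity FRET between anti-GST-Eu on GST-K-Ras (wildtype or mutant) and anti-6His-XL665 on His-hSOS1 measured after ≥10 min in pH 7.4 HEPES/NaCl/DTT/BSA/Igepal buffer.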

[2] = molecular target: T2, KRAS G12D (Homo sapiens, UniProt P01116, G12D); experiment: HTRF assay of K-Ras G12D interaction with SOS1 (PPI-HTRF); conditions: HTRF, 5 nM KRAS G12D; read-out: PPI-HTRF-5 nM KRAS G12D
T2 construct: made in house; host or cells: E. coli, e.g. BL21 (DE3)
How it was run: as §1

[3] = molecular target: T3, KRAS WT (Homo sapiens, UniProt P01116); experiment: HTRF assay of wildtype K-Ras interaction with SOS1 (PPI-HTRF); conditions: HTRF, 5 nM KRAS WT; read-out: PPI-HTRF-5 nM KRAS WT
T3 construct: made in house; host or cells: E. coli, e.g. BL21 (DE3)
How it was run: as §1

T2 sequence (P01116 1-188 isoform P01116-2 G12D): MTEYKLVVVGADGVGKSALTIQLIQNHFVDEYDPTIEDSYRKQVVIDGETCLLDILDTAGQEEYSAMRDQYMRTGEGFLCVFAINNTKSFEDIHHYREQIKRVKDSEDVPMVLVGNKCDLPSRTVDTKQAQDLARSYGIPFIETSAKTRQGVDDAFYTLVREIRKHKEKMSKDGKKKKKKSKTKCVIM
T1 sequence (P01116 1-188 isoform P01116-2 G12S): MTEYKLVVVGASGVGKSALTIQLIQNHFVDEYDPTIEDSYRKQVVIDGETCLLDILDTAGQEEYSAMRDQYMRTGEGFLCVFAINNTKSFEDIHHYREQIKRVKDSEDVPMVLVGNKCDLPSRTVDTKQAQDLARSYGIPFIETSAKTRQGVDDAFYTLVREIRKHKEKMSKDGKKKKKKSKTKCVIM
T3 sequence (P01116 1-188 isoform P01116-2): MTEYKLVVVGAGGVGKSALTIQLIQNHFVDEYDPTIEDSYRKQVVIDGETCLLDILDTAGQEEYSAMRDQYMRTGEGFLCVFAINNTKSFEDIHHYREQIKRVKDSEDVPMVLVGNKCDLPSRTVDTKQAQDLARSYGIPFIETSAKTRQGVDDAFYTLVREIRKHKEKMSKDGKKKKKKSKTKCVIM

| IC50 [1] | IC50 [2] | IC50 [3] | Compound |
| --- | --- | --- | --- |
| < 5 µM | < 5 µM | < 5 µM | N#Cc1c(N)sc2c(F)ccc(-c3c(Cl)cc4c(N5CC6(CCN6C(=O)n6cncn6)CC5COC(F)F)nc(OC[C@@]56CCCN5C[C@H](F)C6)nc4c3F)c12 (stereo partly drawn) [Compound 326, 2-amino-4-(6-chloro-4-(7-((difluoromethoxy)methyl)-1-(1H-1,2,4-triazole-1-carbonyl)-1,6-diazaspiro[3.4]octan-6-yl)-8-fluoro-2-(((2R,7aS)-2-fluorotetrahydro-1H-pyrrolizin-7a(5H)-yl)methoxy)quinazolin-7-yl)-7-fluorobenzo[b]thiophene-3-carbonitrile] |
| < 5 µM | < 5 µM | < 5 µM | N#Cc1c(N)sc2c(F)ccc(-c3c(Cl)cc4c(N5CCC6(CCN6C(=O)n6nc(C7CC7)nc6Cl)C5)nc(OC[C@@]56CCCN5C[C@H](F)C6)nc4c3F)c12 (stereo partly drawn) [Compound 288, 2-amino-4-(6-chloro-4-(1-(5-chloro-3-cyclopropyl-1H-1,2,4-triazole-1-carbonyl)-1,6-diazaspiro[3.4]octan-6-yl)-8-fluoro-2-(((2R,7aS)-2-fluorotetrahydro-1H-pyrrolizin-7a(5H)-yl)methoxy)quinazolin-7-yl)-7-fluorobenzo[b]thiophene-3-carbonitrile] |
| < 5 µM | < 5 µM | < 5 µM | N#Cc1c(N)sc2c(F)ccc(-c3c(Cl)cc4c(N5CCOCC6(CCN6C(=O)n6cncn6)C5)nc(OC[C@@]56CCCN5C[C@H](F)C6)nc4c3F)c12 (stereo partly drawn) [Compound 351, 4-(4-(1-(1H-1,2,4-triazole-1-carbonyl)-6-oxa-1,9-diazaspiro[3.6]decan-9-yl)-6-chloro-8-fluoro-2-(((2R,7aS)-2-fluorotetrahydro-1H-pyrrolizin-7a(5H)-yl)methoxy)quinazolin-7-yl)-2-amino-7-fluorobenzo[b]thiophene-3-carbonitrile] |
